# Activity calls are given as the source filed them. The calls are words filed in the database; no cut-off is given here.
# Legend:
# [1] = target: T1, Receptor tyrosine-protein kinase erbB-2 (Homo sapiens, UniProt P04626); test: Inhibition of wild-type HER2 (unknown origin) at 0.5 nM in presence of substrate incubated for 30 mins by ADP-Glo assay relative to control
# BT-474 [2] = test: Induction of apoptosis in human BT474 cells assessed as increase in early apoptotic cells incubated for 72 hrs by Annexin V-FITC/PI staining based flow cytometry analysis; type: functional, cell-based; conditions: dose 0.1-5 µM
# MDA-MB-231 [3] = test: Induction of apoptosis in human MDA-MB-231 cells assessed as accumulation in late apoptotic cells at 5 uM incubated for 72 hrs by Annexin V-FITC/PI staining based flow cytometry analysis; type: functional, cell-based
# [4] = target: T1, Receptor tyrosine-protein kinase erbB-2; test: Inhibition of HER2 (unknown origin) in presence of substrate incubated for 30 mins by ADP-Glo assay
# MCF7 [5] = test: Induction of apoptosis in human MCF7 cells assessed as accumulation in late apoptotic cells at 5 uM incubated for 72 hrs by Annexin V-FITC/PI staining based flow cytometry analysis; type: functional, cell-based
# MCF7 [6] = test: Induction of apoptosis in human MCF7 cells assessed as accumulation in early apoptotic cells at 5 uM incubated for 72 hrs by Annexin V-FITC/PI staining based flow cytometry analysis; type: functional, cell-based
# MCF7 [7] = test: Potency index, ratio of lapatinib IC50 to test compound IC50 for antiproliferative activity against human MCF7 cells; type: functional
# MDA-MB-231 [8] = test: Antiproliferative activity against human MDA-MB-231 cells assessed as reduction in cell viability incubated for 72 hrs by WST8 assay; type: functional, cell-based; conditions: MDA-MB-231, 72 h
# BT-474 [9] = test: Induction of apoptosis in human BT474 cells assessed as increase in early apoptotic cells at 0.5 to 5 uM incubated for 72 hrs by Annexin V-FITC/PI staining based flow cytometry analysis relative to control; type: functional; conditions: dose 0.5-5 µM
# MDA-MB-231 [10] = test: Induction of apoptosis in human MDA-MB-231 cells assessed as accumulation in early apoptotic cells at 5 uM incubated for 72 hrs by Annexin V-FITC/PI staining based flow cytometry analysis; type: functional, cell-based
# BT-474 [11] = test: Antiproliferative activity against human BT474 cells assessed as reduction in cell viability incubated for 72 hrs by WST8 assay; type: functional, cell-based; conditions: BT-474, 72 h
# MCF7 [12] = test: Antiproliferative activity against human MCF7 cells assessed as reduction in cell viability incubated for 72 hrs by WST8 assay; type: functional, cell-based; conditions: MCF7, 72 h
# BT-474 [13] = test: Induction of apoptosis in human BT474 cells assessed as increase in late apoptotic cells at 0.5 to 5 uM incubated for 72 hrs by Annexin V-FITC/PI staining based flow cytometry analysis relative to control; type: functional; conditions: dose 0.5-5 µM
# BT-474 [14] = test: Induction of apoptosis in human BT474 cells assessed as increase in early apoptotic cells at 0.2 uM incubated for 72 hrs by Annexin V-FITC/PI staining based flow cytometry analysis relative to control; type: functional
# AU565 [15] = test: Antiproliferative activity against human AU565 cells assessed as reduction in cell viability incubated for 72 hrs by WST8 assay; type: functional, cell-based; conditions: AU565, 72 h
# [16] = Antiproliferative activity against human BC assessed as lethality at 10 uM after 48 hrs by SRB assay relative to control; type: functional
# [17] = Antiproliferative activity against human BC assessed as cell growth inhibition at 10 uM after 48 hrs by SRB assay relative to control; type: functional; conditions: read-out: GI
# T47D = test: Antiproliferative activity against human T47D cells assessed as cell growth inhibition after 48 hrs by SRB assay; type: functional; conditions: pooled result: one value given for 5 cell lines, strains, targets or settings
# MCF7 [18] = test: Antiproliferative activity against human MCF7 cells assessed as lethality at 10 uM after 48 hrs by SRB assay relative to control; type: functional
# MDA-MB-468 [19] = test: Antiproliferative activity against human MDA-MB-468 cells assessed as cell growth inhibition after 48 hrs by SRB assay; type: functional
# [20] = tested on: Panel NCI-60 (60 carcinoma cell lines); test: Antiproliferative activity against human NCI60 cells assessed as mean cell growth at 10 uM after 48 hrs by SRB assay relative to control; type: functional
# MDA-MB-468 [21] = test: Antiproliferative activity against human MDA-MB-468 cells assessed as lethality at 10 uM after 48 hrs by SRB assay relative to control; type: functional
# [22] = Antiproliferative activity against human MDA-MB-231 cells assessed as lethality at 10 uM after 48 hrs by SRB assay relative to control; type: functional, MDA-MB-23
# MDA-MB-468 [23] = test: Antiproliferative activity against human MDA-MB-468 cells assessed as cell growth inhibition at 10 uM after 48 hrs by SRB assay relative to control; type: functional; conditions: read-out: GI
# AU565 [24] = test: Down regulation of HER2 expression in human AU565 cells at 0.5 IC50 incubated for 72 hrs by Western blot analysis; type: functional, cell-based
# [25] = tested on: Panel NCI-60 (60 carcinoma cell lines); test: Antiproliferative activity against human NCI60 cells assessed as lethality at 10 uM after 48 hrs by SRB assay relative to control; type: functional
# in vitro [26] = conditions: CD-1, mouse, liver microsomes
# Description: Metabolic stability in CD-1 mouse liver microsomes assessed as parent compound remaining at 100 uM measured after 60 mins in presence of NADPH by LC-MS/MS analysis
# in vitro [27] = conditions: CD-1, mouse, liver microsomes; remark: listed apart in the source
# Description: Metabolic stability in CD-1 mouse liver microsomes assessed as parent compound remaining at 100 uM measured after 60 mins by LC-MS/MS analysis
# in vitro [28] = conditions: CD-1, mouse, liver microsomes; remark: listed apart in the source
# in vitro [29] = conditions: CD-1, mouse, microsomes
# in vitro [30] = conditions: CD-1, mouse, liver microsomes; remark: listed apart in the source
# T1 sequence (P04626 whole entry): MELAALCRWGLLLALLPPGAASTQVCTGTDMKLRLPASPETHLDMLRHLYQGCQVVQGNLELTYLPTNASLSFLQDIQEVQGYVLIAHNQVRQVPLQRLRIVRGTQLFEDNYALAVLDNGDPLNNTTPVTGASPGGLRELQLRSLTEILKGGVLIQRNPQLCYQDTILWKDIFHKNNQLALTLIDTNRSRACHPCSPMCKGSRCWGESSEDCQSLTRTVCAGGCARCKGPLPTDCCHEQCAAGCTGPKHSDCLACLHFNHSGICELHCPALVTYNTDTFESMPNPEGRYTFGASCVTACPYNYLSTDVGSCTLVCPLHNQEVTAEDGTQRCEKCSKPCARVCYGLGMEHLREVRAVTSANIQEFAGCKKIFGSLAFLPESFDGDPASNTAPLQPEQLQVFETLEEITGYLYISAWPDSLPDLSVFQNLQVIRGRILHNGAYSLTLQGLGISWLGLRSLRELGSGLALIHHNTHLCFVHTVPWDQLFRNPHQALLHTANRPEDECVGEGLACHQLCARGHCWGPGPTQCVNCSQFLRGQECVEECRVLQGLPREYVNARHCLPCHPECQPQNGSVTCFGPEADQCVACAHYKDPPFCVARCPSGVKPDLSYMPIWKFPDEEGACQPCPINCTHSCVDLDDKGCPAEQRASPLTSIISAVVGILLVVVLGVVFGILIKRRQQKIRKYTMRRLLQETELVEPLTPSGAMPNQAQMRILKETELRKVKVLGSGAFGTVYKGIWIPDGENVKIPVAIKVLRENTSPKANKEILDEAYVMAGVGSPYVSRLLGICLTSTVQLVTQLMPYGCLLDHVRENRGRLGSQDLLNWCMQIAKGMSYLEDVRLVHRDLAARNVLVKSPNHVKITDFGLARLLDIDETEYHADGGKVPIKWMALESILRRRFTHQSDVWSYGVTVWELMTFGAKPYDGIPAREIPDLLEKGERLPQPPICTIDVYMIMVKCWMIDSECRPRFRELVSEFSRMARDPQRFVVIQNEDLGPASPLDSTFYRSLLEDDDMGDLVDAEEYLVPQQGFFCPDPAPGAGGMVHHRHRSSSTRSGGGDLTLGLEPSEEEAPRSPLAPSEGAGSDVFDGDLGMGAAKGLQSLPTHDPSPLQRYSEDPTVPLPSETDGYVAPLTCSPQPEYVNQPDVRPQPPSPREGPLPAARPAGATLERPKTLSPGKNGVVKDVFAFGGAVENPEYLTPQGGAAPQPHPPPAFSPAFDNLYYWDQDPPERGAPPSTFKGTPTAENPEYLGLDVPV
SMILES,inhibition [1] [%],Activity (BT-474 [2]),Activity (MDA-MB-231 [3]),IC50 [4] [nM],Activity (MCF7 [5]),Activity (MCF7 [6]),IC50 (MDA-MB-231 [8]) [nM],fold change (FC) (BT-474 [9]),Activity (MDA-MB-231 [10]),IC50 (BT-474 [11]) [nM],IC50 (MCF7 [12]) [nM],fold change (FC) (BT-474 [13]),IC50 (AU565 [15]) [nM],other results
CN1CCN(CC(=O)Nc2ccc3ncnc(Nc4ccc(OCc5cccc(F)c5)c(Cl)c4)c3c2)CC1,3,Dose-dependent effect,inactive,6.1,inactive,inactive,1360,10,inactive,133,1780,2,134,Ratio IC50 (MCF7 [7]): <=20; fold change (FC) (BT-474 [14]): 7
Cc1cccc(Oc2ccc(Nc3ncnc4ccc(NC(=O)CN5CCN(C)CC5)cc34)cc2Cl)c1,3,Dose-dependent effect,inactive,5.4,inactive,inactive,4500,<=6,inactive,81,2650,<=3,135,Activity [16]: <=78.7%; inhibition of growth at 10 µM [17]: ≤ 78.7%; GI50 (T47D): 1210 nM; Activity (MCF7 [18]): 18%; GI50 (MDA-MB-468 [19]): 400 nM; Activity [20]: 11.85%; Activity (MDA-MB-468 [21]): 18%; Activity [22]: 18%; inhibition of growth at 10 µM (MDA-MB-468 [23]): 18.8%; Activity (AU565 [24]): inactive; Activity [25]: 1.3%
O=C(O)Cc1ccccc1Nc1c(Cl)cccc1Cl [DICLOFENAC],–,–,–,–,–,–,–,–,–,–,–,–,–,"remaining at 1 h, 100 µM (in vitro [26]): 50.2%; remaining at 1 h, 100 µM (in vitro [27]): 102%; half-life at 1 h, 100 µM (in vitro [28]): 60 min; microsomal CLint at 1 h, 100 µM (in vitro [29]): 23.1 µL/min/mg; CLint scaled at 1 h, 100 µM (in vitro [30]): 91.5 mL/min/kg"

# From ChEMBL document CHEMBL4715878 (J Med Chem, 2020)
